From patent US20260184721A2, “FUSED RING COMPOUND, CONJUGATE THEREOF AND USE THEREOF” (Keymed Biosciences (Chengdu) Co., Ltd., priority 2022, published 2026)

Legend:
[1] = tested on: SK-BR-3 tumor cells; assay: In vitro proliferation inhibitory activity of compounds of Formula (GH) on SK-BR-3 tumor cells (CCK8); assay type: cell-based; details: Homo sapiens, SK-BR-3, 72 h, 3 days of culture, read-out: IC50 for inhibiting proliferation of SK-BR-3 cells in vitro
Method: The objective of this experiment is to detect the in vitro killing activity of the compound of Formula (GH) of the present disclosure on SK-BR-3 tumor cells (human breast cancer cells, Wuhan Procell, Catalog No. CL-0211). The cells were treated with different concentrations of the compound in vitro. After 3 days of culture, the number of viable cells was detected using CCK8 (Cell Counting Kit-8, Catalog No. TS547) reagents, and the in vitro activity of the test compound was evaluated according to the IC50 value.
Taking the test method of in vitro killing activity on SK-BR-3 cells as an example, the following test was performed. […] After the cells were completely digested, 10 mL of cell culture medium containing 2% FBS was added to wash out the digested cells, centrifugation was performed at 300 g for 5 min, the supernatant was discarded, and then 10 to 20 mL of cell culture medium containing 2% FBS was added to resuspend the cells to prepare a single cell suspension. • (3) Cell plating: The SK-BR-3 single cell suspension was mixed well, the viable cell density was adjusted to 6×10^4 cells/mL with the cell culture medium containing 2% FBS, the cell suspension after density adjustment was mixed well, and added to a 96-well cell culture plate at 100 μL/well. Only 200 μL of PBS was added to the peripheral wells of the 96-well plate. The culture plate was incubated in an incubator for 24 hours (37° C., 5% CO2). • (4) Compound preparation: The compound was dissolved in DMSO (dimethyl sulfoxide, SIGMA) to prepare a 2 mM stock solution.
The starting concentrations of small molecule compounds and Dxd were both 600 nM, and the preparation method was as follows.
Then, 315 μL of different samples to be tested were added to the first column of a 96-well U-bottomed drug distribution plate, and the sample concentration was 1200 nM; 210 μL of the cell culture medium containing 2% FBS was added to each well of the second to tenth columns. 105 μL of the sample was taken from the first column and added to the 210 μL cell culture medium in the second column and mixed well, and 105 μL was taken and added to the third column, and so on to the tenth column. • (5) Sample loading operation: 100 μL of the sample to be tested of different concentrations was added to the culture plate, and two replicate wells were set for each sample. The culture plate was incubated in an incubator for 3 days (37° C., 5% CO2). • (6) Color development operation: The 96-well cell culture plate was taken out, the cell culture supernatant was removed by tapping, 100 μL of the RPMI 1640 basal medium (without FBS) containing 10% CCK8 was added, and then it was incubated in an incubator for about 1.5 hours (37° C., 5% CO2). • (7) Plate reading operation: The 96-well cell culture plate was taken out, placed in an ELISA reader (MD SpectraMax i3X), and A450 was determined by the ELISA reader. • (8) Data analysis: Microsoft Excel and Graphpad Prism 5 were used to process and analyze the data.

[2] = tested on: NCI-N87 tumor cells; assay: In vitro proliferation inhibitory activity of compounds of Formula (GH) on NCI-N87 tumor cells (CCK8); assay type: cell-based, human; details: Homo sapiens, NCI-N87, […], read-out: IC50 for inhibiting proliferation of NCI-N87 cells in vitro
Method: The objective of this experiment is to detect the in vitro killing activity of the compound of Formula (GH) disclosed in the present invention on NCI-N87 tumor cells (human gastric cancer cells, Cell Resource Center, Institute of Basic Medicine, Chinese Academy of Medical Sciences, Catalog No. 3111C0001CCC000481). The cells were treated with different concentrations of the compound in vitro, and after 6 days of culture, the number of viable cells was detected using CCK8 (Cell Counting Kit-8, Catalog No. TS547) reagents, and the in vitro activity of the test compound was evaluated according to the IC50 value.
• (1) Cell culture: NCI-N87 cells were cultured in the RPMI 1640 medium containing 2% FBS (Shanghai BasalMedia Technologies Co., Ltd., Catalog No. L210KJ). • (2) Cell preparation: NCI-N87 cells in the logarithmic growth phase were taken, washed once with PBS (phosphate buffered saline, Shanghai BasalMedia Technologies Co., Ltd., Catalog No. E211004), added with 1 mL of trypsin (0.25% Trypsin-EDTA (1×), Shanghai BasalMedia Technologies Co., Ltd., Catalog No. A121002) to allow digestion for 2 to 3 minutes. After the cells were completely digested, 10 mL of the cell culture medium was added to wash off and obtain the digested cells, centrifugation was performed at 300 times gravitational acceleration (g) for 5 min, the supernatant was discarded, then 10 mL of PBS was added to wash the cells once, centrifugation was performed at 300 times gravitational acceleration (g) for 5 minutes, the supernatant was discarded, and 10 mL of the cell culture medium containing 2% FBS was added to resuspend the cells to prepare a single cell suspension. • (3) Cell plating: The NCI-N87 single cell suspension was mixed, the density of live cells was adjusted to 3×10^4 cells/mL with 2% FBS cell culture medium, the cell suspension after density adjustment was mixed well, and added to a 96-well cell culture plate at 100 μL/well. Only 200 μL of PBS was added to each of the peripheral wells of the 96-well plate. The plate was incubated in an incubator for 24 hours (37° C., 5% CO2). • (4) Preparation of sample to be tested:
The sample to be tested was diluted to 3200 nM with cell culture medium containing 2% FBS, then 300 μL of the sample was added to the first well of a 96-well U-bottomed plate with a sample concentration of 3200 nM; and 210 μL of cell culture medium containing 2% FBS was added to each well of the second to tenth columns. 70 μL of the sample was taken from the first column and added to the 210 μL cell culture medium in the second column and mixed well, 70 μL was taken and added to the third column, and so on to the ninth column. • (5) Sample loading operation: 100 μL of the sample to be tested with different concentrations was added to the culture plate, two replicate wells were set for each sample. The culture plate was incubated in an incubator for 6 days (37° C., 5% CO2). • (6) Color development operation: The 96-well cell culture plate was taken out, the supernatant of the culture medium was removed by tapping, 100 μL of 10% CCK8 (prepared with RPMI 1640 basal culture medium, without FBS) solution was added to each well, and incubation was performed in an incubator for 2 hours. • (7) Plate reading operation: The 96-well cell culture plate was taken out, placed in an ELISA reader (SpectraMax i3X), and A450 was determined by the ELISA reader. • (8) Data analysis: Microsoft Excel and Graphpad Prism 5 were used to process and analyze the data.

Row | Compound | IC50 [1] | IC50 [2]
1 | Cc1c(F)cc2nc3c(c4c2c1CC[C@@H]4NC(=O)[C@@H](O)C1CC1)Cn1c-3cc2c(c1=O)COC(=O)[C@]2(O)CC1CC1 [Compound 4-A, (S)-2-Cyclopropyl-N-((1S,9S)-9-(cyclopropylmethyl)-5-fluoro-9-hydroxy-4-methyl-10,13-dioxo-2,3,9,10,13,15-hexahydro-1H,12H-benzo[de]pyrano[3′,4′:6,7]indolizino[1,2-b]quinolin-1-yl)-2-hydroxyacetamide] | 6.42 nM | 2.4 nM
2 | Cc1c(F)cc2nc3c(c4c2c1CC[C@H]4NC(=O)[C@H](O)C1CC1)Cn1c-3cc2c(c1=O)COC(=O)[C@]2(O)CC1CC1 [Compound 5-B, (R)-2-Cyclopropyl-N-((1R,9S)-9-(cyclopropylmethyl)-5-fluoro-9-hydroxy-4-methyl-10,13-dioxo-2,3,9,10,13,15-hexahydro-1H,12H-benzo[de]pyrano[3′,4′:6,7]indolizino[1,2-b]quinolin-1-yl)-2-hydroxyacetamide] | 4.92 nM | 2.96 nM
3 | CC[C@@]1(O)C(=O)OCc2c1cc1n(c2=O)Cc2c-1nc1cc(F)c3c(c1c2CNC(=O)[C@H](C)O)CCC3 [Compound 25, (S)-N-(((S)-8-Ethyl-4-fluoro-8-hydroxy-9,12-dioxo-2,3,8,9,12,14-hexahydro-1H,11H-cyclopenta[f]pyrano[3′,4′:6,7]indolizino[1,2-b]quinolin-15-yl)methyl)-2-hydroxypropanamide] | 5.41 nM | 5.46 nM
